Values quoted from earlier work as cited in patent US20080108586A1, “COMBINATION THERAPY FOR HUMAN IMMUNODEFICIENCY VIRUS INFECTION” (Incyte Corporation, priority 2006, published 2008).

What was measured:
[1] = molecular target: rhesus macaque CCR5 (Macaca mulatta, UniProt P61813)
[2] = molecular target: human CCR5 (Homo sapiens, UniProt P51681)
human CCR5, sequence (P51681 whole entry): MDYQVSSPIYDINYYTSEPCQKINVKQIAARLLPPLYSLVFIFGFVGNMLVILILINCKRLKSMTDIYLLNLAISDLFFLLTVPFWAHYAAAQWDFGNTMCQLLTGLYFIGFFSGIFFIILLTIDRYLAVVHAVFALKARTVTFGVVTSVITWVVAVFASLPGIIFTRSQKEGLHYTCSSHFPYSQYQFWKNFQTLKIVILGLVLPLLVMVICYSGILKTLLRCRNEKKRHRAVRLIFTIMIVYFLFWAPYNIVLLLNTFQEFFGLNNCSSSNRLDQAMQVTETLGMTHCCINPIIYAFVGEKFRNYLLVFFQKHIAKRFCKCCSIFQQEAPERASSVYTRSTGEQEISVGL

inhibition of HIV-1 entry via rhesus macaque CCR5 [1]: inhibits
inhibition of HIV-1 entry via human CCR5 [2]: inhibits
Structure (SMILES): Cc1ncnc(C)c1C(=O)N1CCC(C)(N2CCN([C@@H](C)c3ccc(C(F)(F)F)cc3)[C@@H](C)C2)CC1 [AD101, (4,6-dimethylpyrimidin-5-yl)(4-methyl-4-((S)-3-methyl-4-((S)-1-(4-(trifluoromethyl)-phenyl)ethyl)piperazin-1-yl)piperidin-1-yl)methanone]
